Measured values as given in article PMC4277420, “Assessment of [^125I]WYE-230949 as a Novel Histamine H3 Receptor Radiopharmaceutical” (PLoS ONE, 2014).

Legend:
[1] = In vivo microSPECT imaging of brain uptake; design: species or system rat
Procedure: (§1) Animal experiments were conducted under the UK Animals (Scientific Procedures) Act 1986. This work was approved by the ethical review committee at the University of Glasgow (PPL: 60/3436) prior to the start of study. Naïve male Sprague-Dawley rats (Harlan, UK), weighing 217 to 352 g were either conscious or anaesthetised (2.5–3% isoflurane via a tracheostomy and artificial ventilation in 70/30% N2O/O2) for the duration of the experiment. Anaesthetised rats had their respiration and temperature monitored throughout. [^125I]WYE-230949 was administered via a femoral vein cannula to anaesthetised rats or via the lateral tail vein to conscious rats. The injected dose for each rat was calculated by measuring the syringe in a dose calibrator before and after [^125I]WYE-230949 administration. The radioactive and radiochemical amounts administered to individual rats ranged from 12.6 to 24.5 MBq and 0.32 to 0.70 µg/kg respectively in all in vivo studies.
MicroSPECT imaging was performed in order to image the uptake of [^125I]WYE-230949 in the brain over time. SPECT scanning was performed using a MollyQ 50 microSPECT scanner (Neurophysics Corp., Shirley, MA, U.S.A.). Rats were anaesthetised for the duration of scan (2–3% isoflurane in 70/30% N2O/O2) and physiological parameters were maintained as described previously. The scanning protocol was designed to ensure that a forebrain slice encompassing structures dense in H3 bindings sites including cortex, striatum, hippocampus and thalamus was captured; the first slice being 14.4 mm caudal to the eyes, approximately at the level of the caudate nucleus. Scanning was commenced 12 min prior to intravenous injection of [^125I]WYE-230949 via the tail vein. Ten sequential coronal slices (400 µm/slice) were collected over a total scanning distance of 4 mm with a scanning time of 12 min per repetition. […] The mean intensity of the ROI in each slice of the SPECT images was measured by plotting a z-axis profile. […] Finally these values were expressed as % of injected dose per ml of tissue and plotted against time.

[2] = Ex vivo biodistribution; format: in vivo, rat; details: for brain uptake: i.v.
Procedure: as §1
Ex vivo biodistribution studies were performed in both conscious and anaesthetised rats in order to investigate the effect of anaesthesia on [^125I]WYE-230949 uptake. At 30 or 120 min following [^125I]WYE-230949 administration rats were killed by cervical dislocation. These time points were chosen based on the biological half life of [^125I]WYE-230949 determined from microSPECT imaging studies. Serial arterial blood sampling via a femoral artery cannula was performed in anaesthetised rats only. Blood was collected into heparin-coated tubes for analysis of plasma and into EDTA coated tubes for analysis of whole blood. At either 30 or 120 min following [^125I]WYE-230949 administration rats were killed by cervical dislocation and the brain, heart, lungs, kidneys and liver dissected. Samples were counted on a Gamma Scintillation Counter (Packard Cobra II D5010, UK) and counts per minute (cpm) converted to kBq using a standard curve. Radioactivity was corrected for decay of ^125I and expressed per sample weight and as a percentage of injected dose (%ID/g tissue).

[3] = Ex vivo HPLC analysis of rat plasma and brain samples (% parent compound); format: in vivo
Procedure: as §1
After intravenous injection of [^125I]WYE-230949 blood samples were obtained by terminal cardiac puncture from anaesthetised rats or via the lateral tail vein from conscious rats at either 30 or 120 min. Rats were then immediately killed by cervical dislocation and the brain removed. Plasma was separated from whole blood by centrifugation and the protein precipitated by combining 400 µl of plasma with 400 µl of ice-cold acetonitrile. A sample (200 µl) of the supernatant was made up to 1 ml with distilled water and injected onto the HPLC column. The brain was homogenised in 2 ml saline, protein precipitated by addition of 2 ml of ice-cold acetonitrile. Samples were then centrifuged (1300 rpm; 200×g) and the supernatant added to 1 ml acetonitrile before being centrifuged again (1300 rpm; 200×g). The acetonitrile was evaporated under a stream of argon gas and the remaining 1 ml injected onto the HPLC column. Analysis of the brain and plasma metabolite samples was performed using the analytical HPLC methodology described. The % parent compound present was calculated.

[4] = molecular target: T1, histamine H3 receptor (Rattus norvegicus, UniProt Q9QYN8); experiment: In vitro autoradiography on rat brain sections; format: binding; details: 5 nM radioligand, non-specific with 5 µM iodophenpropit
T1 construct: Sections (20 µm) cut from a frozen rat brain were pre-incubated in Tris-HCl buffer; from tissue
Procedure: Sections (20 µm) cut from a frozen rat brain were pre-incubated in Tris-HCl buffer (50 mM, pH 7.4; EDTA 5 mM) for 15 min then incubated in 5 nM [^125I]WYE-230949 for 90 min at room temperature. Non-specific binding was defined in adjacent sections in the presence of 5 µM iodophenpropit dihydrobromide. Sections were washed (2×30 min in Tris buffer) and briefly (15 s) rinsed in distilled water before drying and apposition to Kodak Biomax for 24 h. These autoradiograms were generated only for visual comparison with those obtained ex vivo.

T1 sequence (Q9QYN8 whole entry): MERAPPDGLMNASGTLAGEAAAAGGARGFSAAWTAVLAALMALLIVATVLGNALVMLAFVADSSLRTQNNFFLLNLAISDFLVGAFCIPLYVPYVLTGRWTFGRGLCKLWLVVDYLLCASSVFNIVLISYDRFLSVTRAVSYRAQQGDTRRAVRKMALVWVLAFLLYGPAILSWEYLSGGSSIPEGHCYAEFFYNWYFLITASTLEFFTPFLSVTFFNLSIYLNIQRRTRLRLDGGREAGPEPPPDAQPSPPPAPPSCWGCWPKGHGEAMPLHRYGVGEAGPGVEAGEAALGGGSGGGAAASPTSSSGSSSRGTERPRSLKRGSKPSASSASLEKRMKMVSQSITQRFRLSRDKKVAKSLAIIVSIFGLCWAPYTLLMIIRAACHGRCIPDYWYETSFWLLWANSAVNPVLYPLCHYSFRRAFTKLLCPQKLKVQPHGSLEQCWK

O=C(c1ccc(Cn2cnc3cccc([125I])c32)cc1)N1CC[C@H](N2CCCC2)C1 [[^125I]WYE-230949]
maximum brain uptake (microSPECT) ([1]; first 12 min following i.v. injection, anaesthetised rats, n = 5): 0.14±0.01 % ID/ml | maximum brain uptake (SPECT), as restated in discussion ([1]; first 12 min post injection, rats): 0.14 %ID/g | half-life in rat brain ([1]; microSPECT time activity curve): 45.4 min | brain uptake ([2]; 30 min, anaesthetised rats): 0.11 %ID/g | brain uptake ([2]; 30 min, conscious rats): 0.06±0.01 %ID/g | brain uptake ([2]; 120 min, anaesthetised rats): 0.06±0.01 %ID/g | brain uptake ([2]; 120 min, conscious rats): 0.03±0.003 %ID/g | peak radioactivity in plasma ([2]; anaesthetised rats, n = 6): 4.04±1.14 %ID/g of tissue | peak radioactivity in whole blood ([2]; anaesthetised rats, n = 6): 3.14±0.26 %ID/g of tissue | time of peak radioactivity in plasma ([2]; anaesthetised rats, n = 6): 0.38 ± 0.02 min | time of peak radioactivity in whole blood ([2]; anaesthetised rats, n = 6): 0.50 ± 0.03 min | parent compound remaining in plasma ([3]; 30 minutes after injection): less than 38% | Percentage of parent compound detected ([3]; Brain, 30 min, anaesthetised): 27±4 (n = 3) % | Percentage of parent compound detected ([3]; Brain, 30 min, conscious): 46±2 (n = 4) % | Percentage of parent compound detected ([3]; Brain, 120 min, anaesthetised): 32±5 (n = 3) % | Percentage of parent compound detected ([3]; Brain, 120 min, conscious): 36±6 (n = 4) % | Percentage of parent compound detected ([3]; Plasma, 30 min, anaesthetised): 14±2 (n = 4) % | Percentage of parent compound detected ([3]; Plasma, 30 min, conscious): 38±9 (n = 6) % | Percentage of parent compound detected ([3]; Plasma, 120 min, anaesthetised): 3±3 (n = 4) % | Percentage of parent compound detected ([3]; Plasma, 120 min, conscious): 8±5 (n = 4) % | parent compound remaining in plasma ([3]; after 120 min): less than 8% | regional distribution of binding in rat brain [4]: corresponded with known histamine H3 receptor distribution
